Target: TET2 (Homo sapiens (Human), UniProt Q6N021)
Experiment: Determination of TET2 activity in cell (5-hmC dot-blot, TET2-transfected HEK293T cells)
Type: cell-based
Details: 10 μM compound, HEK293T transfected with pCMV6-TET2, 48 h after transfection; in reference to vehicle, corrected with example 1 condition
Experimental: The HEK293T cell line was grown in Dulbecco's Modified Eagle Medium (DMEM) containing 10% (v/v) fetal bovine serum (FBS) and 1% (v/v) penicillin-streptomycin (P/S).
Twenty-four hours prior transfection, 3×10^6 HEK293T cells were seeded in p100 dishes previously coated with 0.001% of poly (1-lysine). One hour before transfection, a 10 μM solution of each compound was prepared in complete medium and 9 mL was added by medium replacement in one p100 dish (by duplicate). A solution of complete medium with DMSO was used as a vehicle control. Then, a transfection mix was prepared diluting 8 μg of pCMV6-TET2 expression vector (ID: RC226438, Origene) with 32 μg of polyethylenimine (PEI 25000, Polysciences, Inc.) in a 150 mM NaCl solution per p100 plate. After 15 min of incubation at rt, 1 mL of the transfection mix was added to each p100 plate. Next day, medium was replaced with a fresh diluted compound solution (10 mL/p100 dish). Forty-eight hours after transfection, cells were trypsinized and pelleted. Each pellet was suspended in 500 μL of DNA lysis buffer (50 mM Tris-HCl pH 8, 10 mM EDTA pH 8, 0.1% Triton X-100, 0.5% Tween-20, 400 μg/mL Proteinase K, 50 μg/mL RNAse), and incubated overnight at 56° C. in a thermal mixer. Next day, genomic DNA (gDNA) was extracted from each sample following a standard phenol-chloroform extraction method.
For each sample, 2 μg of gDNA was diluted in 50 μL of H2O. Then, 50 μL of 2X Denature solution (0.8 M NaOH, 20 mM EDTA) was added to each sample and incubated at 95° C. for 10 min. Samples were immediately placed on ice to cool and mixed with 100 μL of cold 2X Neutralize buffer (2 M ammonium acetate pH 7). Then, samples were incubated on ice for 10 min. DNA two-fold serial dilutions were prepared by mixing 100 μL of each sample with 100 μL of H2O in the next well, and so on. A total of 7 serial dilutions were set up. One hundred microliters of each sample and their respective dilutions were spotted on a positively charged nylon membrane (Amersham Hybond-N+, GE healthcare) in an assembled Bio-Dot apparatus (Bio-Rad). Samples were washed adding 400 μL of 0.4 M NaOH in each well. Then, blotted membrane was removed from the Bio-Dot apparatus and washed with 2×SSC buffer (0.3 M NaCl, 30 mM sodium citrate) for 5 min, air dried for 15 min, and UV-crosslinked (energy 120,000 μJ/cm^2) for 1 min. Afterwards, the blotted membrane was blocked with Blocking solution (5% non-fat milk, 0.1% Tween-20 in PBS1X) for 1 h at rt. Then, the membrane was incubated with the 5-hmC (5-hydroxymethylcytosine) primary antibody (#39769, Active Motif) diluted 1/10,000 in Blocking solution for 1 h at rt. Next, membrane was washed three times for 5 min in PBS1X and incubated with the anti-rabbit-HRP secondary antibody diluted 1/5,000 in blocking solution for 1 h at rt. Finally, the membrane was washed three times for 5 min in PBS1X, developed with SuperSignal West Pico Chemiluminescent Substrate (ThermoFisher Scientific), and exposed to autoradiography films (Fujifilm).
Each dot-blot membrane allows the evaluation of up to 6 different conditions (in duplicate) at the same time. Among these 6 different conditions there is always the condition of the vehicle and our compound of example 1, so in the end we evaluated 4 new compounds per membrane. The density intensity of each dot was quantified using the Image J software. […] Fold-change was calculated in reference to the vehicle condition and corrected with the example 1 condition for each dot-blot membrane.

Fold change (amount of 5-hmC)	Structure (SMILES)
9.2	Cc1[nH]c2ccccc2c1-c1nc(NC(=O)Cc2cn3ccsc3n2)sc1C [Example 4, 2-(imidazo[2,1-b]thiazol-6-yl)-N-[5-methyl-4-(2-methyl-1H-indol-3-yl)thiazol-2-yl]acetamide]
16.0	Cc1[nH]c2ccccc2c1-c1csc(NC(=O)Cc2c[nH]c3ccc(F)cc23)n1 [Example 12, 2-(5-fluoro-1H-indol-3-yl)-N-[4-(2-methyl-1H-indol-3-yl)thiazol-2-yl]acetamide]
11.6	Cc1[nH]c2ccccc2c1-c1csc(NC(=O)Cc2c[nH]c3ccccc23)n1 [Example 13, 2-(1H-indol-3-yl)-N-[4-(2-methyl-1H-indol-3-yl)thiazol-2-yl]acetamide]
8.4	Cc1[nH]c2ccccc2c1-c1csc(NC(=O)Cc2cc(Br)cs2)n1 [Example 19, 2-(4-bromothiophen-2-yl)-N-[4-(2-methyl-1H-indol-3-yl)thiazol-2-yl]acetamide]
15.3	Cc1[nH]c2ccccc2c1-c1csc(NC(=O)Cc2c[nH]c3ccc(O)cc23)n1 [Example 21, 2-(5-hydroxy-1H-indol-3-yl)-N-[4-(2-methyl-1H-indol-3-yl)thiazol-2-yl]acetamide]

— US20240208998A1, “COMPOUNDS FOR USE IN THE TREATMENT OF HYPERPROLIFERATIVE DISORDERS” (FUNDACIÓ PRIVADA INSTITUT D'INVESTIGACIÓ ONCOLÓGICA DE VALL …, priority 2021, published 2024)
